PubChem BioAssay AID1845211 (Molecular Pharmacology Branch, DTP, NCI, 2023)

System: NCI-H322M multicellular tumor spheroids, viability (% test/control)
Assay: Anticancer human tumor NCI-H322M cell line growth inhibition;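 on viability, T/C: spheroids exposed to compound for seven days before readout; 100% = DMSO vehicle control wells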
Details: for IC50: curve of first compound; for viability, T/C: stronger effect = lower value
From the text: Multicellular complex tumor spheroid response to DNA repair inhibitors in combination with DNA-damaging drugs
This study explores the anticancer activities of DNA-damaging drugs and inhibitors of DNA damage repair, both as single agents and in combinations. Complex tumor spheroids comprised of malignant cells, endothelial cells and mesenchymal stem cells served as an in vitro model for human solid tumors. This model system incorporates physiologically relevant features and patient-derived or established malignant cell lines with clinically relevant genetic alterations from many tumor types. Twenty-six patient-derived or established malignant cell lines were evaluated representing sarcoma, melanoma, small cell lung cancer (SCLC), non-small cell lung cancer (NSCLC), as well as bladder, ovarian and pancreatic cancers. The concentration ranges selected for each drug and investigational agent were based upon clinically achievable concentrations if the clinical Cmax of the agent was known.
Compounds. The drugs and compounds olaparib (NSC753686), talazoparib (NSC767125), berzosertib (NSC777718), elimusertib (NSC800525), nedisertib (NSC802822), VX-984 (NSC792969), AZD-1390 (NSC803789), temozolomide (NSC362856), topotecan (NSC609699), trabectedin (NSC813783), staurosporine (NSC755774), and gemcitabine (NSC613327) were obtained from the National Cancer Institute (NCI) Developmental Therapeutics Program Chemical Repository. The FDA-approved anticancer drug set is available from the Developmental Therapeutics Program at https://dtp.cancer.gov/organization/dscb/obtaining/available_plates.htm. […] The stock solutions were prepared in dimethyl sulfoxide (DMSO, Sigma-Aldrich, St. Louis, MO, cat. D2650) at 400-fold the tested concentration and stored at -70 degrees C. Prior to their use, the stock solutions were diluted in fresh medium and the final DMSO concentration in the assay was 0.25% (v/v). All drugs and investigational agents were tested over a range starting from a high concentration at or near the clinical Cmax and decreasing in half-log increments. If the clinical Cmax for an agent had not been determined, the highest concentration tested was 10 microM.
Cell Lines. The patient-derived cancer cell (PDC) lines: 156681-154-R-J1-PDC, 283228-195-R-J1-PDC, 287954-098-R-J1-PDC, 292921-168-R-J2-PDC, 349418-098-R-PDC, 425362-245-T-J1-PDC, 556581-035-R-J1-PDC, and BL0293-F563-PDC were received from the NCI Patient-Derived Models Repository (PDMR, https://pdmr.cancer.gov). The established cell lines HS-SY-2 (RRID:CVCL_8719), MPNST, and SYO-1 (RRID:CVCL_7146) were obtained from the Sloan Kettering Institute. The alveolar soft parts sarcoma cell line ASPS-1 (RRID:CVCL_S738) was established at the NCI and grown from internal seed stocks. The following established cell lines were purchased from the American Type Culture Collection (ATCC, Manassas, VA): G-401 (ATCC, cat. CRL-1441, RRID:CVCL_0270), SW982 (ATCC, cat. HTB-93, RRID:CVCL_1734), VA-ES-BJ (ATCC, cat. CRL-2138, RRID:CVCL_1785), NCI-H719 (ATCC, cat. CRL-5837, RRID:CVCL_1582), NCI-H196 (ATCC, cat. CRL-5823, RRID:CVCL_1509), NCI-H841 (ATCC, cat. CRL-5845, RRID:CVCL_1595), NCI-H1618 (ATCC, cat. CRL-5879, RRID:CVCL_1480), NCI-H1876 (ATCC, cat. CRL-5902, RRID:CVCL_1503), DMS 114 (ATCC, cat. CRL-2066; RRID:CVCL_1174), NCI-H211 (ATCC, cat. CRL-5824; RRID:CVCL_1529), and SW 1271 (ATCC, cat. CRL-2177, RRID:CVCL_1716). The small cell lung cancer cell line COR-L88 was purchased from Sigma-Aldrich (cat. 92031917-1VL, RRID:CVCL_1141). The non-small cell lung cancer cell lines NCI-H226 (RRID:CVCL_1544) and NCI-H322M (RRID:CVCL_1557) were established at the NCI and grown from internal seed stocks. Pooled donor human umbilical vein endothelial cells (HUVEC, Lonza, cat. CC-2519) and human mesenchymal stem cells (hMSC, Lonza, cat. PT-2501) were purchased from Lonza (Walkersville, MD).
Cell Culture. All cells were maintained in an incubator at 37 degrees C and 5% CO2 with 95% humidity. […]

[1] = second compound 0.003 µM, first compound 0.00949 µM
[2] = second compound 0.003 µM, first compound 0.03 µM
[3] = second compound 0.003 µM, first compound 0.0949 µM
[4] = second compound 0.003 µM, first compound 0.3 µM
[5] = second compound 0.003 µM, first compound 0.949 µM
[6] = second compound 0.003 µM, first compound 3 µM
[7] = second compound 0.00949 µM, first compound 0.00949 µM
[8] = second compound 0.00949 µM, first compound 0.03 µM
[9] = second compound 0.00949 µM, first compound 0.0949 µM
[10] = second compound 0.00949 µM, first compound 0.3 µM
[11] = second compound 0.00949 µM, first compound 0.949 µM
[12] = second compound 0.00949 µM, first compound 3 µM
[13] = second compound 0.03 µM, first compound 0.00949 µM
[14] = second compound 0.03 µM, first compound 0.03 µM
[15] = second compound 0.03 µM, first compound 0.0949 µM
[16] = second compound 0.03 µM, first compound 0.3 µM
[17] = second compound 0.03 µM, first compound 0.949 µM
[18] = second compound 0.03 µM, first compound 3 µM
[19] = second compound 0.0949 µM, first compound 0.00949 µM
[20] = second compound 0.0949 µM, first compound 0.03 µM
[21] = second compound 0.0949 µM, first compound 0.0949 µM
[22] = second compound 0.0949 µM, first compound 0.3 µM
[23] = second compound 0.0949 µM, first compound 0.949 µM
[24] = second compound 0.0949 µM, first compound 3 µM
[25] = second compound 0.3 µM, first compound 0.00949 µM
[26] = second compound 0.3 µM, first compound 0.03 µM
[27] = second compound 0.3 µM, first compound 0.0949 µM
[28] = second compound 0.3 µM, first compound 0.3 µM
[29] = second compound 0.3 µM, first compound 0.949 µM
[30] = second compound 0.3 µM, first compound 3 µM

SMILES	IC50 (second compound 0.003 µM) [µM]	IC50 (second compound 0.00949 µM) [µM]	IC50 (second compound 0.03 µM) [µM]	IC50 (second compound 0.0949 µM) [µM]	IC50 (second compound 0.3 µM) [µM]	viability, T/C [1] [%]	viability, T/C [2] [%]	viability, T/C [3] [%]	viability, T/C [4] [%]	viability, T/C [5] [%]	viability, T/C [6] [%]	viability, T/C [7] [%]	viability, T/C [8] [%]	viability, T/C [9] [%]	viability, T/C [10] [%]	viability, T/C [11] [%]	viability, T/C [12] [%]	viability, T/C [13] [%]	viability, T/C [14] [%]	viability, T/C [15] [%]	also measured
CNCc1ccc(-c2cc(-c3nc(-c4ccc(S(=O)(=O)C(C)C)cc4)cnc3N)on2)cc1 + CC[C@@]1(O)C(=O)OCc2c1cc1n(c2=O)Cc2cc3c(CN(C)C)c(O)ccc3nc2-1	> 3	> 3	> 3	> 3	1.47	79.2	93.3	96	79.7	78	85.6	95.3	87.9	83.7	75.4	81.3	85.7	88.4	74.7	85.5	viability, T/C [16]: 69.1%; viability, T/C [17]: 86%; viability, T/C [18]: 86.6%; viability, T/C [19]: 69.3%; viability, T/C [20]: 66%; viability, T/C [21]: 61.3%; viability, T/C [22]: 74.2%; viability, T/C [23]: 59.7%; viability, T/C [24]: 69.1%; viability, T/C [25]: 55.2%; viability, T/C [26]: 56.4%; viability, T/C [27]: 59.1%; viability, T/C [28]: 54.7%; viability, T/C [29]: 51.7%; viability, T/C [30]: 46.2%
Cc1sc2c(c1C)C(c1ccc(Cl)cc1)=NC(CC(=O)Nc1ccc(O)cc1)c1nnc(C)n1-2 (stereo not given) + CC[C@@]1(O)C(=O)OCc2c1cc1n(c2=O)Cc2cc3c(CN(C)C)c(O)ccc3nc2-1	> 3	> 3	> 3	> 3	> 3	105	139	132	134	95.3	76.2	106	112	140	118	79	77.2	107	127	126	viability, T/C [16]: 103%; viability, T/C [17]: 82.2%; viability, T/C [18]: 73.7%; viability, T/C [19]: 90.7%; viability, T/C [20]: 99.1%; viability, T/C [21]: 112%; viability, T/C [22]: 89.2%; viability, T/C [23]: 79.8%; viability, T/C [24]: 64.4%; viability, T/C [25]: 74.5%; viability, T/C [26]: 73.5%; viability, T/C [27]: 90.2%; viability, T/C [28]: 80.5%; viability, T/C [29]: 71%; viability, T/C [30]: 58.1%
Cn1ncnc1[C@H]1c2n[nH]c(=O)c3cc(F)cc(c23)N[C@@H]1c1ccc(F)cc1 + CC[C@@]1(O)C(=O)OCc2c1cc1n(c2=O)Cc2cc3c(CN(C)C)c(O)ccc3nc2-1	> 3	> 3	> 3	1.63	0.00964	84.3	87.1	89.6	71.9	79.6	68.6	85.1	78.2	80.6	73.7	69	70.7	76.6	72.5	78.4	viability, T/C [16]: 70.2%; viability, T/C [17]: 63.7%; viability, T/C [18]: 65%; viability, T/C [19]: 67.4%; viability, T/C [20]: 56.3%; viability, T/C [21]: 59.4%; viability, T/C [22]: 51.5%; viability, T/C [23]: 51.2%; viability, T/C [24]: 50.2%; viability, T/C [25]: 50.8%; viability, T/C [26]: 46.2%; viability, T/C [27]: 49.2%; viability, T/C [28]: 49.9%; viability, T/C [29]: 47%; viability, T/C [30]: 44.1%
